# Reference: article PMC4014984, “The tetrapeptide core of the carrier peptide Xentry is cell-penetrating: novel activatable forms of Xentry” (Scientific Reports, 2014)
# Square brackets hold non-standard residues; d marks the D form. Peptide text beside a SMILES is read from it. * marks the point of attachment. FITC = O=C1OC2(c3ccc(O)cc3Oc3cc(O)ccc32)c2ccc(NC(=S)*)cc21
# Experiments:
# MCF-7 cells = assay: Uptake of activatable Xentry peptides with or without MMP-9 pretreatment; settings: then 3 h with MCF-7 cells, fluorescence or confocal microscopy
# HepG2 cells [1] = test system: HepG2 cells
# WM-266-4 cells = assay: Cell-penetrating ability of Xentry peptides, fluorescence microscopy; settings: for Uptake by WM-266-4 cells (in words): FITC-labelled L-isomeric peptides, 10 μM, 3 h, fixed cells; for Uptake by WM-266-4 cells: scored visually, labelled peptides incubated 3 h at 37°C, L-isomers in media without FCS, D-isomers with FCS
# BT549 cells = assay: as above; settings: for Uptake by BT549 cells (in words): FITC-labelled L-isomeric peptides, 10 μM, 3 h, fixed cells; for Uptake by BT-549cells: scored visually, labelled peptides incubated 3 h at 37°C, L-isomers in media without FCS
# HepG2 cells [2] = assay: Cell-penetrating ability of Xentry peptides, fluorescence/confocal microscopy; settings: for Uptake by HepG2 cells (in words): FITC-labelled L-isomeric peptides, 10 μM, 3 h, fixed cells, fluorescence or confocal microscopy; for Uptake by HepG2 cells: scored visually, fluorescence microscopy, labelled peptides incubated 3 h at 37°C, L-isomers in media without FCS, D-isomers with FCS
# HepG2 cells [3] = assay: Quantification of peptide uptake by overall cell fluorescence in wells (plate reader); settings: HepG2, 10 μM, 3 h, media without FCS, plate reader ex 485 nm / em 520 nm, mean ± SD n = 4, Student's t-test
# Method: HepG2 cells seeded into 96-well plates were incubated with L-isomeric (a), and D-isomeric (b) peptides at a final concentration of 10 μM in quadruplicate wells. The cells were incubated for 3 h, fixed with 4% formaldehyde, and fluorescence measured using a fluorescent plate reader at an excitation wavelength of 485 nm and emission wavelength of 520 nm. The fluorescence of cells was plotted as the mean ± SD (n = 4).
# The cells were washed thrice with media without FCS, and peptides diluted in 100 μl of MEM media without FCS were added to the cells at a final concentration of 10 μM in quadruplicate wells. […] The fluorescence of cells was plotted as the mean ± SD (n = 4).
# HepG2 cells [4] = test system: HepG2 cells; remark: listed apart in the source
Molecule,Uptake by WM-266-4 cells (in words) (WM-266-4 cells),Uptake by WM-266-4 cells (WM-266-4 cells),Uptake by BT549 cells (in words) (BT549 cells),Uptake by HepG2 cells (in words) (HepG2 cells [2]),Uptake by BT-549cells (BT549 cells),Uptake by HepG2 cells (HepG2 cells [2]),further results
CC(C)C[C@@H](N)C(=O)N[C@H](CS)C(=O)N[C@H](CC(C)C)C(=O)N[C@H](CCCNC(=N)N)C(=O)N1CCC[C@@H]1C(=O)N[C@@H](C(=O)NCC(=O)NCC(=O)NCC(=O)NCC(=O)N1CCC[C@H]1C(=O)N[C@@H](CC(C)C)C(=O)NCC(=O)N[C@@H](CC(C)C)C(=O)N[C@@H](C)C(=O)NCC(=O)NCC(=O)N[C@H](CC(C)C)C(=O)N[C@H](CS)C(=O)N[C@H](CC(C)C)C(=O)N[C@H](CCCNC(=N)N)C(=O)N1CCC[C@@H]1C(=O)N[C@@H](C(=O)NCC(=O)N[C@H](CCCCNC(=S)Nc1ccc2c(c1)C(=O)OC21c2ccc(O)cc2Oc2cc(O)ccc21)C(=O)O)C(C)C)C(C)C [lclrpvGGGGPLGLAGGlclrpvgk-FITC] (H-[dL][dC][dL][dR][dP][dV]GGGGPLGLAGG[dL][dC][dL][dR][dP][dV]G[dK](FITC)-OH),,,,,,,"Uptake by MCF-7 cells after pretreatment with MMP-9 (MCF-7 cells; 10 μM peptide incubated 3 h at 37°C with activated MMP-9 (0.4 μg/ml)): led to uptake of the digested peptide; Uptake by MCF-7 cells, peptide not treated with MMP-9 (MCF-7 cells; 10 μM peptide left untreated): not cell-permeable"
GRKKRRQRRRPPQGGRRRQQQQQQRRR [penetratin],,,,,,,Effect on viability of HepG2 cells (HepG2 cells [1]): no significant affect
IIIR,poorly cell-permeable,-,poorly cell-permeable,improved cell uptake,,,
LCLE,readily taken up,+++,readily taken up,less well,+++,++,Cell-penetrating ability compared with LCLR (overall cell fluorescence in wells) (HepG2 cells [3]): not significantly different
LCLK,taken up well,+++,taken up well,taken up well,,,Cell-penetrating ability compared with LCLR (overall cell fluorescence in wells) (HepG2 cells [3]): reduced activity
LCLN,,+,,,+++,+,Cell-penetrating ability compared with LCLR (overall cell fluorescence in wells) (HepG2 cells [3]): reduced activity
LCLQ,,+,maintained cell-permeability,did not improve uptake,+++,++,Cell-penetrating ability compared with LCLR (overall cell fluorescence in wells) (HepG2 cells [3]): not significantly different
LCLRPVG,,,,,+++,,
LCLRPVGGGGGGGGGGGGGGGLCLRPVG,,,,,,,Uptake of linear multivalent forms of Xentry by HepG2 cells (HepG2 cells [4]): unable to penetrate
LCLRPVGGGRRRQQQQQQRRR,,,,,,,Effect on HepG2 viability relative to the other three CPPs (HepG2 cells [1]): least effect; Effect on viability of HepG2 cells (HepG2 cells [1]): no significant affect
LLLLR,poorly cell-permeable,-,poorly cell-permeable,poorly penetrated,+,+,
LLLR,poorly cell-permeable,-,poorly cell-permeable,poorly penetrated,-,-,
LLLRR,poorly cell-permeable,-,poorly cell-permeable,failed to improve cell-penetrating ability,-,-,
VVVR,poorly cell-permeable,-,poorly cell-permeable,improved cell uptake,-,++,
